Test results reported in patent publication US20100216817A1, “Antitumoral Tetrahydro-Pyrimidines” (Pharma Mar SA, priority 2005, published 2010).
Like-named read-outs stand apart in the source and are kept apart here.

Key:
[1] = test system: PANC1; assay: SRB colorimetric cell growth inhibition assay; settings: for GI50 / CC50: Homo sapiens, PANC-1, 48 h; for CC50: read-out: LC50; for TGI: PANC1, pancreas, 48 hours exposure
[2] = test system: HT29; assay: SRB colorimetric cell growth inhibition assay; settings: for TGI: HT29, colon, 48 hours exposure; for GI50 / CC50: Homo sapiens, HT-29, 48 h; for CC50: read-out: LC50
[3] = test system: SK-BR3; assay: SRB colorimetric cell growth inhibition assay; settings: for GI50 / CC50: Homo sapiens, SK-BR-3, 48 h; for CC50: read-out: LC50; for TGI: SK-BR3, breast, 48 hours exposure
[4] = test system: LN-caP; assay: SRB colorimetric cell growth inhibition assay
[5] = test system: HELA; assay: SRB colorimetric cell growth inhibition assay; settings: for TGI: HELA, cervix, 48 hours exposure; for GI50 / CC50: Homo sapiens, HeLa, 48 h; for CC50: read-out: LC50
[6] = test system: LOVO; assay: SRB colorimetric cell growth inhibition assay; settings: for GI50 / CC50: Homo sapiens, LoVo, 48 h; for CC50: read-out: LC50; for TGI: LOVO, colon, 48 hours exposure
[7] = test system: LOVO-DOX; assay: SRB colorimetric cell growth inhibition assay; settings: for GI50 / CC50: Homo sapiens, 48 h; for CC50: read-out: LC50; for TGI: LOVO-DOX, colon (MDR), 48 hours exposure
[8] = test system: IGROV-ET; assay: SRB colorimetric cell growth inhibition assay; settings: for GI50 / CC50: Homo sapiens, 48 h; for CC50: read-out: LC50; for TGI: IGROV-ET, ovary, 48 hours exposure
[9] = test system: A549; assay: SRB colorimetric cell growth inhibition assay; settings: for TGI: A549, NSCL, 48 hours exposure; for GI50 / CC50: Homo sapiens, A549, 48 h; for CC50: read-out: LC50
[10] = test system: DU-145; assay: SRB colorimetric cell growth inhibition assay; settings: for TGI: DU-145, prostate, 48 hours exposure; for GI50 / CC50: Homo sapiens, DU-145, 48 h; for CC50: read-out: LC50
[11] = test system: IGROV; assay: SRB colorimetric cell growth inhibition assay; settings: for GI50 / CC50: Homo sapiens, 48 h; for CC50: read-out: LC50; for TGI: ovary, 48 hours exposure
[12] = test system: HELA-APL; assay: SRB colorimetric cell growth inhibition assay; settings: for TGI: HELA-APL, cervix, Aplidine resistant, 48 hours exposure; for GI50 / CC50: Homo sapiens, 48 h; for CC50: read-out: LC50
[13] = test system: SK-MEL-28; assay: SRB colorimetric cell growth inhibition assay; settings: for GI50 / CC50: Homo sapiens, SK-MEL-28, 48 h; for CC50: read-out: LC50; for TGI: SK-MEL-28, melanoma, 48 hours exposure
[14] = test system: Pseudomonas aeruginosa; settings: cited from earlier work
[15] = test system: Peptococcus assaccharolyticus; settings: Tetrahedron 1994, 50, 3415-3426; cited from earlier work
[16] = test system: Streptococcus fecalis; settings: J. Org. Chem. 1992, 57, 3832-3835; cited from earlier work
[17] = test system: Bacteroides fragilis; settings: Tetrahedron 1994, 50, 3415-3426; cited from earlier work
[18] = test system: Staphylococcus aureus; settings: cited from earlier work
[19] = test system: Clostridium perfringens; settings: Tetrahedron 1994, 50, 3415-3426; cited from earlier work
[20] = test system: Escherichia coli; settings: cited from earlier work
[21] = J. Org. Chem. 1992, 57, 3832-3835
[22] = Tetrahedron 1994, 50, 3415-3426

Molecule: CCCCCCC#C/C=C\CCCCCCCC1=NCCCN1CCCCNC(=N)N [Compound A]
- GI50 [1]: 535 nM
- CC50 [1]: 2910 nM
- TGI [1]: 1.16E−6 Molar
- TGI [2]: 2.98E−6 Molar
- GI50 [2]: 1010 nM
- CC50 [2]: 8420 nM
- GI50 [3]: 789 nM
- CC50 [3]: 1810 nM
- TGI [3]: 1.20E−6 Molar
- GI50 ([4]; Homo sapiens, LNCaP, 48 h): 333 nM
- CC50 ([4]; Homo sapiens, LNCaP, 48 h, read-out: LC50): 1370 nM
- TGI ([4]; LN-caP, prostate, 48 hours exposure): 6.73E−7 Molar
- TGI [5]: 2.42E−6 Molar
- GI50 [5]: 801 nM
- CC50 [5]: 1040 nM
- GI50 [6]: 475 nM
- CC50 [6]: 1410 nM
- TGI [6]: 8.17E−7 Molar
- GI50 [7]: 1780 nM
- CC50 [7]: 13000 nM
- TGI [7]: 5.14E−6 Molar
- GI50 [8]: 463 nM
- CC50 [8]: 4420 nM
- TGI [8]: 1.26E−6 Molar
- TGI [9]: 3.61E−6 Molar
- GI50 [9]: 1220 nM
- CC50 [9]: 12500 nM
- TGI [10]: 8.80E−7 Molar
- GI50 [10]: 424 nM
- CC50 [10]: 1830 nM
- GI50 [11]: 579 nM
- CC50 [11]: 5310 nM
- TGI [11]: 1.53E−6 Molar
- TGI [12]: 1.07E−6 Molar
- GI50 [12]: 540 nM
- CC50 [12]: 2110 nM
- GI50 [13]: 649 nM
- CC50 [13]: 7660 nM
- TGI [13]: 2.49E−6 Molar

Molecule: N=C(N)NCCCCN1CCCN=C1CCCCCCCC=O [Compound B]
- GI50 [1]: > 9290 nM
- CC50 [1]: > 9290 nM
- TGI [1]: >9.29E−6 Molar
- TGI [2]: >9.29E−6 Molar
- GI50 [2]: > 9290 nM
- CC50 [2]: > 9290 nM
- GI50 [3]: > 9290 nM
- CC50 [3]: > 9290 nM
- TGI [3]: >9.29E−6 Molar
- TGI [5]: >9.29E−6 Molar
- GI50 [5]: > 9290 nM
- CC50 [5]: > 9290 nM
- GI50 [6]: > 9290 nM
- CC50 [6]: > 9290 nM
- TGI [6]: >9.29E−6 Molar
- GI50 [7]: > 9290 nM
- CC50 [7]: > 9290 nM
- TGI [7]: >9.29E−6 Molar
- GI50 [8]: > 9290 nM
- CC50 [8]: > 9290 nM
- TGI [8]: >9.29E−6 Molar
- TGI [9]: >9.29E−6 Molar
- GI50 [9]: > 9290 nM
- CC50 [9]: > 9290 nM
- TGI [10]: >9.29E−6 Molar
- GI50 [10]: > 9290 nM
- CC50 [10]: > 9290 nM
- GI50 [11]: > 9290 nM
- CC50 [11]: > 9290 nM
- TGI [11]: >9.29E−6 Molar
- TGI [12]: >9.29E−6 Molar
- GI50 [12]: > 9290 nM
- CC50 [12]: > 9290 nM
- GI50 [13]: > 9290 nM
- CC50 [13]: > 9290 nM
- TGI [13]: >9.29E−6 Molar

Molecule: Phloeodictine A
- MIC [14, 21]: 10 µg/mL
- MIC [14, 22]: 30 µg/mL
- MIC [15]: 10 µg/mL
- MIC [16]: 5 µg/mL
- MIC [17]: 1 µg/mL
- MIC [18, 21]: 1 µg/mL
- MIC [18, 22]: 3 µg/mL
- MIC [19]: 30 µg/mL
- MIC [20, 21]: 1 µg/mL
- MIC [20, 22]: 3 µg/mL

Molecule: Phloeodictine B
- MIC [14, 21]: > 30 µg/mL
- MIC [15]: > 30 µg/mL
- MIC [16]: > 15 µg/mL
- MIC [17]: > 30 µg/mL
- MIC [18, 21]: 3 µg/mL
- MIC [18, 22]: 30 µg/mL
- MIC [19]: > 30 µg/mL
- MIC [20, 21]: 30 µg/mL
- MIC [20, 22]: 30 µg/mL
